US20250275966A1, “GABAA RECEPTOR MODULATOR SALTS, PARTICLES, AND USES THEREOF” (Engrail Therapeutics, Inc., priority 2022, published 2025)
Converted amounts (≈) assume the structure as drawn. Where a name gives a salt, the structure may show the parent alone.

Assays:
[1] = Intrinsic dissolution rate and solubility in 0.1 N HCl with 1% Tween 80 (USP <1087>); format: physicochemical; settings: 0.1 N HCl with 1% Tween 80, 37° C.; for Solubility, time point 15 min / Solubility, time point 30 min / Solubility, time point 45 min / Solubility, time point 60 min / Solubility, time point 75 min / Solubility, time point 90 min / Solubility, time point 105 min / Solubility, time point 120 min: 500 mL, pellet about 75 mg; for Intrinsic Dissolution Rate IDR: paddle 100 rpm, die surface 0.5 cm^2; for Solubility, Cumulative: sum of the 15-120 min time points
Procedure: The intrinsic dissolution rate was determined by forming compacted pellets of approximately 75 mg of API using a compression force of 1200 pounds of force, and each pellet (die surface area: 0.5 cm^2) was immersed into a flat bottom vessel containing 500 mL of medium (aqueous 0.1 N HCl with 1% Tween 80 (polyoxyethylene (20) sorbitan monooleate)), using a Distek 2100A dissolution bath, and Distek Circulator/heater (set to 37° C.), with a paddle speed of 100 rpm. An aliquot of the sample (1 mL) was pulled from dissolution media at 15, 30, 45, 60, 75, 90, 105, and 120 minutes, filtered, and analyzed by HPLC. The slope of the dissolution profile corresponded to an intrinsic dissolution rate of hemi-fumarate salt Form B of 6.2 μg/(min·cm^2) as compared to 8.9 μg/(min·cm^2) for Compound 1 (free base). Determination of intrinsic dissolution rate (IDR) was performed for Compound 1 and seven different salts of Compound 1 according to USP <1087> in 0.1 N hydrochloric acid with 1% Tween 80 (Polyoxyethylene […] sorbitan monooleate). Compacted pellets containing approximately 75 mg API were prepared using a compression force of 1200 pounds of force, and each pellet (die surface area: 0.5 cm^2) was immersed into a flat bottom vessel containing 500 mL of medium, using a Distek 2100A dissolution bath, and Distek Circulator/heater (set to 37° C.), with a paddle speed of 100 rpm. An aliquot of the sample (1 mL) was pulled from dissolution media at 15, 30, 45, 60, 75, 90, 105, and 120 minutes, filtered, and analyzed by HPLC. HPLC for IDR and solid-state stability analyses were conducted with an Agilent 1260 Infinity system equipped with a G1311B Quad pump, […] Autosampler, G1330B auto-sampler thermostat, G1316A Thermostatted Column Compartment with a column switch valve, and […] diode array detector.

[2] = Pharmacokinetic analysis of Compound 1 and its salts after oral capsule administration (Example 4); format: in vivo, cynomolgus monkeys; settings: single PO capsule, 30 mg/kg
Procedure: A pharmacokinetic analysis was performed comparing administration of Compound 1 with certain salts of Compound 1 after oral (PO) administration in 3 male cynomolgus monkeys. The subjects received a single PO oral gavage of active pharmaceutical ingredient (API) (e.g., Compound 1 fumarate, Compound 1 sulfate, Compound 1 hydrochloride, Compound 1 phosphate, Compound 1 tosylate, Compound 1 malonate, Compound 1 maleate, or Compound 1 free base) in a capsule at a dose of 30 mg/kg. Following dose administration, the animals were flushed with approximately 10 milliliters of tap water to ensure all API was administered. Animals were observed twice daily and at sample collection time-points for any abnormal clinical and behavioral signs. Body weights were taken prior to dosing and weekly thereafter until study termination. Blood samples (0.5 mL) were collected pre-dose, 15 minutes, 30 minutes, and 1, 2, 4, 6, 8, 10, 12, and 24 hours post-dose. Each blood sample was collected from the monkey's femoral, saphenous or other available vein via direct venipuncture, placed into a polypropylene tube containing K2EDTA as the anticoagulant, and gently inverted several times to mix. The blood samples were kept on wet ice until centrifugation. Blood was centrifuged within 10 minutes of collection. The samples were centrifuged at a temperature of 4° C., at 3,000 g, for 5 minutes. The resulting plasma (˜0.25 mL) was divided into two equal aliquots (125 μL each) into polypropylene tubes, designated as Set A and Set B, after centrifugation. Plasma samples designated for certain metabolites (Set A) were treated with 12.5 μL of 2 M ascorbic acid (plasma: ascorbic acid=[…], v:v) prepared beforehand by combining 0.352 g of ascorbic acid into 1 mL of sterile water in a glass vial and mixing thoroughly. […] Once plasma was prepared, the samples were snap frozen on dry ice. All plasma samples were stored frozen below −70° C. until analyzed.

[3] = listed as Compound 1 (parent free base)
[4] = 3 male cynomolgus monkeys, plasma Compound 1
[5] = 3 male cynomolgus monkeys, plasma Compound 1, listed as Free base

Structure (SMILES) | Cmax [2, 4] | Solubility, time point 15 min [1] | Solubility, time point 30 min [1] | Solubility, time point 45 min [1] | Solubility, time point 60 min [1] | Solubility, time point 75 min [1] | Solubility, time point 90 min [1] | Solubility, time point 105 min [1] | Solubility, time point 120 min [1] | Intrinsic Dissolution Rate IDR [1] | Solubility, Cumulative [1] | AUClast [2, 4] | Tmax [2, 4] | further results
[2H]C([2H])([2H])C(c1cc2nnc(-c3cc(F)ccc3F)n2nc1OCc1ncnn1C)(C([2H])([2H])[2H])C([2H])([2H])[2H] [Compound 1, 3-(2,5-difluorophenyl)-7-[1,1-di(methyl-d3)ethyl-2,2,2-d3]-6-[(1-methyl-1H-1,2,4-triazol-5-yl)methoxy]-1,2,4-triazolo[4,3-b]pyridazine] | 1550 ng/mL | – | – | – | – | – | – | – | – | – | – | – | – | Solubility, time point 15 min [1, 3]: 0.413 µg/mL (≈ 1.01 µM); Solubility, time point 30 min [1, 3]: 0.464 µg/mL (≈ 1.14 µM); Solubility, time point 45 min [1, 3]: 0.641 µg/mL (≈ 1.57 µM); Solubility, time point 60 min [1, 3]: 0.823 µg/mL (≈ 2.01 µM); Solubility, time point 75 min [1, 3]: 0.89 µg/mL (≈ 2.18 µM); Solubility, time point 90 min [1, 3]: 1.026 µg/mL (≈ 2.51 µM); Solubility, time point 105 min [1, 3]: 1.23 µg/mL (≈ 3.01 µM); Solubility, time point 120 min [1, 3]: 1.31 µg/mL (≈ 3.21 µM); Intrinsic Dissolution Rate IDR ([1]; listed as Compound 1 (free base)): 8.9 μg/(min · cm^2); Intrinsic Dissolution Rate IDR [1, 3]: 8.9 μg/(min · cm^2); Solubility, Cumulative [1, 3]: 6.797 µg/mL (≈ 16.6 µM); AUClast [2, 5]: 25463 ng·h/mL; Tmax [2, 5]: 4.0 h; AUClast ([2]; male cynomolgus monkeys): 25463 ng·h/mL
[2H]C([2H])([2H])C(c1cc2nnc(-c3cc(F)ccc3F)n2nc1OCc1ncnn1C)(C([2H])([2H])[2H])C([2H])([2H])[2H] [Maleate Salt, 3-(2,5-difluorophenyl)-7-[1,1-di(methyl-d3)ethyl-2,2,2-d3]-6-[(1-methyl-1H-1,2,4-triazol-5-yl)methoxy]-1,2,4-triazolo[4,3-b]pyridazine] | 1388 ng/mL | 0.245 µg/mL | 0.36 µg/mL | 0.462 µg/mL | 0.567 µg/mL | 0.681 µg/mL | 0.791 µg/mL | 0.941 µg/mL | 1.01 µg/mL | 7.3 μg/(min · cm^2) | 5.057 µg/mL | 20575 ng·h/mL | 12.0 h | –
[2H]C([2H])([2H])C(c1cc2nnc(-c3cc(F)ccc3F)n2nc1OCc1ncnn1C)(C([2H])([2H])[2H])C([2H])([2H])[2H] [Tosylate Salt, 3-(2,5-difluorophenyl)-7-[1,1-di(methyl-d3)ethyl-2,2,2-d3]-6-[(1-methyl-1H-1,2,4-triazol-5-yl)methoxy]-1,2,4-triazolo[4,3-b]pyridazine] | 1629 ng/mL | 0.56 µg/mL | 0.638 µg/mL | 0.755 µg/mL | 0.88 µg/mL | 1.02 µg/mL | 1.15 µg/mL | 1.43 µg/mL | 1.39 µg/mL | 8.7 μg/(min · cm^2) | 7.823 µg/mL | 23248 ng·h/mL | 10.7 h | –
[2H]C([2H])([2H])C(c1cc2nnc(-c3cc(F)ccc3F)n2nc1OCc1ncnn1C)(C([2H])([2H])[2H])C([2H])([2H])[2H] [Malonate Salt, 3-(2,5-difluorophenyl)-7-[1,1-di(methyl-d3)ethyl-2,2,2-d3]-6-[(1-methyl-1H-1,2,4-triazol-5-yl)methoxy]-1,2,4-triazolo[4,3-b]pyridazine] | 2010 ng/mL | 0.352 µg/mL | 0.454 µg/mL | 0.579 µg/mL | 0.68 µg/mL | 0.757 µg/mL | 0.87 µg/mL | 1.04 µg/mL | 1.05 µg/mL | 6.9 μg/(min · cm^2) | 5.782 µg/mL | 24694 ng·h/mL | 4.7 h | –
[2H]C([2H])([2H])C(c1cc2nnc(-c3cc(F)ccc3F)n2nc1OCc1ncnn1C)(C([2H])([2H])[2H])C([2H])([2H])[2H] [Sulfate Salt, 3-(2,5-difluorophenyl)-7-[1,1-di(methyl-d3)ethyl-2,2,2-d3]-6-[(1-methyl-1H-1,2,4-triazol-5-yl)methoxy]-1,2,4-triazolo[4,3-b]pyridazine] | 1151 ng/mL | 0.316 µg/mL | 0.364 µg/mL | 0.453 µg/mL | 0.569 µg/mL | 0.668 µg/mL | 0.772 µg/mL | 0.944 µg/mL | 1.06 µg/mL | 7.1 μg/(min · cm^2) | 5.146 µg/mL | 18231 ng·h/mL | 4.0 h | –
